Read-outs that look alike come from different tables or passages of the source.
Molecular target: phosphorylated active hERK2 enzyme (Homo sapiens (Human), UniProt P28482)
Assay: Active Human ERK2 (hERK2) Activity Assay (IMAP-FP)
Assay type: biochemical
Conditions: 10 point titration, read-out: AERK2 IC50
Method: Assays Active Human ERK2 (hERK2) Activity Assay:
Activated ERK2 activity was determined in an IMAP-FP assay (Molecular Devices). […] The final reaction in each well of 25 μL consists of 0.5 nM hERK2, 900 nM unlabeled peptide, 80 nM labeled-peptide, and 30 μM ATP. Phosphorylation reactions were allowed to proceed for 60 minutes and were immediately quenched by the addition of 60 μL IMAP detection beads (1:1000 dilutions) in IMAP binding buffer (Molecular Devices) with 24 mM NaCl. Plates were read on EnVision reader after 60 minutes binding equilibration using Fluorescence Polarization protocol (Perkin Elmer).

[1] = Table 5, 0.5 nM hERK2, 30 μM ATP
[2] = Table 6, 0.5 nM hERK2, 30 μM ATP

Chain of phosphorylated active hERK2 enzyme (P28482 whole entry): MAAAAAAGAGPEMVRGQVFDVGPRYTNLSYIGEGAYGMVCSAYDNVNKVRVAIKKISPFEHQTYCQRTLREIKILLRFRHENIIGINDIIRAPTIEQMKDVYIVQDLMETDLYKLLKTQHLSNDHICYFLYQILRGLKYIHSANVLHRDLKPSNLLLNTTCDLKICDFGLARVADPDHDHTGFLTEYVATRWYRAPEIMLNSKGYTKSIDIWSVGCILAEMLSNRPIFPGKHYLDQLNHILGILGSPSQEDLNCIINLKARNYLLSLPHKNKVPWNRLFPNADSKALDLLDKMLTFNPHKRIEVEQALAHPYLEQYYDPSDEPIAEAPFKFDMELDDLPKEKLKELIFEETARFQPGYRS

IC50 [1] [nM]	IC50 [2] [nM]	Compound
88.8	–	C[C@@H](NC(=O)Nc1cc2[nH]nc(NS(=O)(=O)CC3CC3)c2cn1)c1ccccc1 [Example 55, 1-cyclopropyl-N-[6-({[(1R)-1-phenylethyl]carbamoyl}amino)-1H-pyrazolo[4,3-c]pyridin-3-yl]methanesulfonamide]
191	–	C[C@@H](NC(=O)Nc1cc2[nH]nc(NS(=O)(=O)C3CNC3)c2cn1)c1ccccc1 [Example 56]
3.05	–	CCNc1n[nH]c2c(F)c(NC(=O)N[C@H](C)c3ccccc3)ncc12 [Example 57, (R)-1-(3-(Ethylamino)-7-fluoro-1H-pyrazolo[4,3-c]pyridin-6-yl)-3-(1-phenylethyl)urea]
6.43	–	CC(=O)Nc1n[nH]c2c(F)c(NC(=O)N[C@H](C)c3ccccc3)ncc12 [Example 58, (R)—N-(7-Fluoro-6-(3-(1-phenylethyl)ureido)-1H-pyrazolo[4,3-c]pyridin-3-yl)acetamide]
6.47	–	C[C@@H](NC(=O)Nc1ncc2c(N)n[nH]c2c1F)c1ccccc1 [Example 59, (R)-1-(3-Amino-7-fluoro-1H-pyrazolo[4,3-c]pyridin-6-yl)-3-(1-phenylethyl)urea]
38.8	–	CCNc1n[nH]c2c(C)c(NC(=O)N[C@H](C)c3ccccc3)ncc12 [Example 60, (R)-1-(3-(Ethylamino)-7-methyl-1H-pyrazolo[4,3-c]pyridin-6-yl)-3-(1-phenylethyl)urea]
–	8.8	Cc1ccc(Nc2n[nH]c3cc(NC(=O)N[C@H](C)c4ccccc4)ncc23)cn1 [Example 61, 1-{3-[(6-methylpyridin-3-yl)amino]-1H-pyrazolo[4,3-c]pyridin-6-yl}-3-[(1R)-1-phenylethyl]urea]
–	14.7	Cc1cc(Nc2n[nH]c3cc(NC(=O)N[C@H](C)c4ccccc4)ncc23)ccn1 [Example 62, 1-{3-[(2-methylpyridin-4-yl)amino]-1H-pyrazolo[4,3-c]pyridin-6-yl}-3-[(1R)-1-phenylethyl]urea]
–	5.8	C[C@@H](NC(=O)Nc1cc2[nH]nc(N3CCc4scnc4C3)c2cn1)c1ccc(F)cc1 [Example 63, 1-[3-(6,7-dihydro[1,3]thiazolo-[4,5-c]pyridin-5(4H)-yl)-1H-pyrazolo[4,3-c]pyridin-6-yl]-3-[(1R)-1-(4-fluorophenyl)ethyl]-urea]
–	5.6	C[C@@H](O)[C@@H](NC(=O)Nc1cc2[nH]nc(N3CCc4scnc4C3)c2cn1)c1ccccc1 [Example 64, 1-[3-(6,7-dihydro[1,3]thiazolo-[4,5-c]pyridin-5(4H)-yl)-1H-pyrazolo[4,3-c]pyridin-6-yl]-3-[(1S,2R)-2-hydroxy-1-phenylpropyl]urea]
–	365	COC(=O)N[C@H](C(=O)Nc1n[nH]c2cc(NC(=O)N[C@H](C)c3ccc(F)cc3)ncc12)C1CCOCC1 [Example 65, methyl [(1S)-2-{[6-({[(1R)-1-(4-fluoro-phenyl)ethyl]carbamoyl}-amino)-1H-pyrazolo[4,3-c]-pyridin-3-yl]amino}-2-oxo-1-(tetrahydro-2H-pyran-4-yl)-ethyl]carbamate]
–	31.6	COC(=O)N[C@H](C(=O)Nc1n[nH]c2cc(NC(=O)N[C@H](C)c3ccc(F)cc3)ncc12)C(C)C [Example 66, methyl [(1S)-1-{[6-({[(1R)-1-(4-fluoro-phenyl)ethyl]-carbamoyl}-amino)-1H-pyrazolo[4,3-c]-pyridin-3-yl]-carbamoyl}-2-methylpropyl]-carbamate]
–	0.7	CCNc1n[nH]c2cc(NC(=O)N[C@H](CO)c3ccccc3)ncc12 [Example 67, 1-[3-(ethylamino)-1H-pyrazolo[4,3-c]pyridin-6-yl]-3-[(1S)-2-hydroxy-1-phenylethyl]urea]
–	0.5	C[C@@H](NC(=O)Nc1cc2[nH]nc(N)c2c(CO)n1)c1ccccc1 [Example 68, (R)-1-(3-amino-4-(hydroxymethyl)-1H-pyrazolo[4,3-c]pyridin-6-yl)-3-(1-phenylethyl)urea]
–	1.5	COCc1nc(NC(=O)N[C@H](C)c2ccccc2)cc2[nH]nc(N)c12 [Example 69, (R)-1-(3-amino-4-(methoxymethyl)-1H-pyrazolo[4,3-c]pyridin-6-yl)-3-(1-phenylethyl)urea]

Reference: patent US9233979B2, “Compounds that are ERK inhibitors” (Merck Sharp & Dohme Corp., priority 2012, dated 2016)
